Source: ChEMBL document CHEMBL4321850, “Targeting Aryl hydrocarbon receptor for next-generation immunotherapies: Selective modulators (SAhRMs) versus rapidly metabolized ligands (RMAhRLs)” (Eur J Med Chem, 2020)

How the values were obtained:
[1] = biological target: T1, Aryl hydrocarbon receptor (Mus musculus, UniProt P30561); experiment: Displacement of 2-azido-3-[125I]7,8-dibromodibenzo-pdioxin from C57BL/6J mouse liver AhR relative to TCDD
T1 sequence (P30561 whole entry): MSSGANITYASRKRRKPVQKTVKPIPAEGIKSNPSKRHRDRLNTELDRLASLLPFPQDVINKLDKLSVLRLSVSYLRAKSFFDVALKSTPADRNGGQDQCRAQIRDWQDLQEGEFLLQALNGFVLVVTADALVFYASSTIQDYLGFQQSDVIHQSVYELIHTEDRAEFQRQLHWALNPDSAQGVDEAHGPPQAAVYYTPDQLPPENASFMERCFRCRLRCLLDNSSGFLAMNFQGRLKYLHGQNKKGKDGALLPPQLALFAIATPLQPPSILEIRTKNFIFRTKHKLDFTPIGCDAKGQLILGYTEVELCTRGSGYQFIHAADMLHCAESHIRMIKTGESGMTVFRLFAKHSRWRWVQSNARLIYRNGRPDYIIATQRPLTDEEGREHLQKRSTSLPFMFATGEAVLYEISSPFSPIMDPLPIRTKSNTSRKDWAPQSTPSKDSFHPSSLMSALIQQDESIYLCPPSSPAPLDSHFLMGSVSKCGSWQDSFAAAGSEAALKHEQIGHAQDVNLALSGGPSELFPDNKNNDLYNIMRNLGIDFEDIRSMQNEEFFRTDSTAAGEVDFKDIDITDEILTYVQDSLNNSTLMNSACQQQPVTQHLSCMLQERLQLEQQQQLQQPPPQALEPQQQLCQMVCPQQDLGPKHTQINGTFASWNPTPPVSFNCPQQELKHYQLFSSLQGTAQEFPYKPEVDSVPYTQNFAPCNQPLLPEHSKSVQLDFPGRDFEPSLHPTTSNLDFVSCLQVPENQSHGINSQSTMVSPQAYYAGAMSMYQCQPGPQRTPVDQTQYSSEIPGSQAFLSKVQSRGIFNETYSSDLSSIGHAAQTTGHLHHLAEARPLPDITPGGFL

[2] = biological target: T1, Aryl hydrocarbon receptor; experiment: Displacement of 2-azido-3-[125I]7,8-dibromodibenzo-pdioxin from C57BL/6J mouse liver AhR
[3] = biological target: T1, Aryl hydrocarbon receptor; experiment: Displacement of 2-azido-3-[125I]7,8-dibromodibenzo-pdioxin from C57BL/6J mouse liver AhR incubated for 20 mins by gamma counting based autoradiography
[4] = biological target: T2, Aryl hydrocarbon receptor (Homo sapiens, UniProt P35869); experiment: Displacement of [3H] 3-MC from AhR (unknown origin)
T2 sequence (P35869 whole entry): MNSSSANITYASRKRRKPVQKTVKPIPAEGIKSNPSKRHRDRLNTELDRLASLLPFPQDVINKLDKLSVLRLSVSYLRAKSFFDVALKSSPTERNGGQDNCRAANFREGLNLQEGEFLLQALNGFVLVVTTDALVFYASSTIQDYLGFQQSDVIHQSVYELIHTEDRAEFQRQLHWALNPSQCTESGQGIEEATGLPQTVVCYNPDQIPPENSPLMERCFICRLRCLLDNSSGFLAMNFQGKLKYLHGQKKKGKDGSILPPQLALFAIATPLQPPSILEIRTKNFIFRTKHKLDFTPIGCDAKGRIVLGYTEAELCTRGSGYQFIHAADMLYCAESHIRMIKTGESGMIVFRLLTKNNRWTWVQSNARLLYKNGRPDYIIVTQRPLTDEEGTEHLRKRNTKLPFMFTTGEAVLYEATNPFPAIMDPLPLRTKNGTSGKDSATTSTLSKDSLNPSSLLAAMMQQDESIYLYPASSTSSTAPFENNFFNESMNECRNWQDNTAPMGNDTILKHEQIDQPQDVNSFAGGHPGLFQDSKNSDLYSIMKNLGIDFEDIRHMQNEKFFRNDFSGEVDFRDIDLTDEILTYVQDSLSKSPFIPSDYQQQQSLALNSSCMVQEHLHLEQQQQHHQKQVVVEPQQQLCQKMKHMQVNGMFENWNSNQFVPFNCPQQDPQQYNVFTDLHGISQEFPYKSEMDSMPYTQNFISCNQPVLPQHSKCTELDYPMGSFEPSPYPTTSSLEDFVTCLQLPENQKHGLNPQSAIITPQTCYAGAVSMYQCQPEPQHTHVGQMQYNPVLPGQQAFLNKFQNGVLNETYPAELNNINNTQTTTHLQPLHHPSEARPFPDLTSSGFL

[5] = biological target: T2, Aryl hydrocarbon receptor; experiment: Binding affinity to AhR (unknown origin)
[6] = biological target: T2, Aryl hydrocarbon receptor; experiment: Binding affinity to AhR (unknown origin) relative to TCDD
[7] = biological target: T2, Aryl hydrocarbon receptor; experiment: Inhibition of AhR (unknown origin)
[8] = biological target: T1, Aryl hydrocarbon receptor; experiment: Displacement of [3H]TCDD from mouse AhR

## c1ccc2c(Cc3c[nH]c4ccccc34)c[nH]c2c1 [ARUNDINE]
[1]
  EC50: 78 µM
[2]
  Kd: 0.09 µM

## O=c1cc(-c2ccccc2)oc2c1ccc1ccccc12 [ALPHA-NAPHTHOFLAVONE]
[3]
  IC50: 0.025 µM

## O=c1c2cccc3cccc(c32)c2nc3ccc(Cl)cc3n12
[4]
  IC50: 0.0026 µM

## Cc1cc(Cl)cc2c1oc1cc(Cl)cc(Cl)c12
[5]
  Kd: 0.00013 µM
[6]
  EC50: 0.049 µM

## Nc1ccccc1C(=O)C[C@H](N)C(=O)O [L-KYNURENINE]
[7]
  Ki: 21.6 µM

## COC(=O)c1csc(C(=O)c2c[nH]c3ccccc23)n1
[8]
  Kd: 0.003 µM

## COc1ccc(-c2cc(=O)c3ccc4ccccc4c3o2)cc1OC
[3]
  IC50: 0.021 µM
